One experiment addresses CD30 (human) (UniProt P28908). Briefly: cell-based or functional assay.
Experiment [1] concerns Jurkat T cells. Briefly: Jurkat T cell proliferation, 3H-TdR incorporation, anti-CD30 mAbs with or without secondary cross-linking Ab. The note with it: for inhibition of Jurkat T cell proliferation by immobilized mAb: mAb immobilized onto TC wells, data not shown; for inhibition of thymidine incorporation in Jurkat cells: secondary cross-linking antibody used. The experiment is classed as cell-based, human. How it is done:
FIG. 2. […] Proliferation was assessed by a pulse of tritiated thymidine (^3H-TdR) during the last 4 hours of a 72 hour incubation.
FIG. 3. […] Proliferation was assessed by a pulse of ^3H-TdR during the last 4 hours of a 48-hour incubation.
The effect of signaling through CD30 by anti-CD30 on the proliferation of Jurkat T cells was assessed by tritiated thymidine (^3H-TdR) incorporation assays. Jurkat cells were treated with soluble anti-CD30 in graded doses or anti-CD30 cross-linked by a secondary cross-linking antibody (Ab). […] Final ratios of 1:2.5, 1:5, and 1:10 between the primary mAbs and secondary cross-linking antibodies were used. Antibody cocktails were allowed to incubate at room temperature for 15 minutes. Serial dilutions of these antibody cocktails in culture medium were then prepared to achieve the desired final concentrations. One hundred ill of antibody cocktails were then mixed with 100 μl Jurkat cell suspension containing 5000 cells in 96-well tissue culture (TC) plates. Cells were incubated with the antibody cocktails for 44 hours before a 4-hour pulse with 1 μCi of ^3H-TdR. Cells were then harvested onto filters, and incorporated tritiated thymidine was measured by scintillation counting. Thymidine incorporation values obtained from the treated cells were then compared to the untreated control cultures.

For experiment [2], the system named is Jurkat T cells. Briefly: Cell cycle disposition, DNA synthesis and DNA fragmentation (apoptosis) by PI and anti-BrdU staining. The experiment is classed as cell-based, human. As to conditions: for DNA fragmentation in Jurkat cells: mAb cross-linked by goat anti-mouse IgG Fc, after 24 and 48 hours. On the technique in general: Incorporation of labelled thymidine or its analogues reports DNA synthesis.
Protocol: The relationship between cell cycle status and DNA replication in Jurkat cells treated with cross-linked anti-CD30 in Abs was further investigated. […] The antibody cocktails were allowed to incubate at room temperature for 15 minutes. Serial 1:10 dilutions of these antibody cocktails in culture medium were then prepared. One ml of antibody cocktails was then mixed with 1 ml of Jurkat cell suspension containing 0.25×10^6 cells in 12-well TC plates.
After 24 or 48 hours of incubation, cells were harvested by centrifugation and resuspended in 2 ml of fresh medium equilibrated at 37° C. Bromodeoxyuridine (BrdU) (Sigma, St. Louis, Mo.) was used to label cells that were actively synthesizing DNA. Twenty μl of 1 mM BrdU dissolved in water were added to the cell suspension, and the incubation continued at 37° C. for 15 minutes. Cells were then spun down, washed once with PBS, and resuspended in 0.5 ml of ice-cold PBS. One ml of 100% ethanol at −20° C. was added drop-wise to the cell suspension for cell fixation. After fixation at 4 C for 30 minutes, fixed cells were spun down. The cell pellets were resuspended in 1 ml of 2 M HCl with 0.5% Triton X-100 (Sigma) and incubated for 30 minutes at room temperature before cells were spun down. One ml of 0.1 M Na2B4O7 at pH 8.5 was used to resuspend the cell pellets and to neutralize the acid for 10 minutes at room temperature. Cells were then pelleted by centrifugation and washed once with PBS containing 0.5% Tween 20 (Sigma) and 1% BSA. […] Cells were then washed twice with PBS, 0.5% Tween 20, 1% BSA, and then resuspended in 0.5 ml of PBS containing 5 μg/ml of propidium iodide (PI) (Sigma) to quantify DNA contents in cells. […]
Jurkat T cells were treated with either anti-CD30 mAb alone, anti-CD3 mAb, alone, or a combination of anti-CD30 and anti-CD3 mAbs. […] Cell cycle distribution was determined by BrdU and PI staining as in FIG. 4.

In experiment [3] the test system is Jurkat T cells. The experiment is described as follows: Apoptosis by Annexin V binding and permeability to PI. As to conditions: primary mAb 2 μg/ml, 10-fold excess GAM. The experiment is classed as cell-based, human. As for the experimental part:
FIG. 7. […] Anti-CD30 and anti-CD3 mAbs were used at 2 μg/ml. GAM secondary Ab was used in 10-fold excess to cross-link the primary mAbs. Binding of FITC-conjugated Annexin V enabled the detection of cells undergoing apoptosis. Membrane permeability to PI was used to detect dead cells that had lost membrane integrity. In the figure, Annexin V^−/PI^− events represent live cells (lower left quadrant), Annexin V^+/PI^− events represent apoptotic cells (lower right quadrant), and Annexin V^+/PI^+ events represent dead cells (upper right quadrant). Numbers outside of the density plots denote the percentage of cells present in each of the quadrants.
Primary mAbs were used at a final concentration of 2 μg/ml. A 10-fold excess of GA-M antibody was used to cross-link the primary antibodies. After an incubation of 15 minutes at room temperature, antibody cocktails were added to Jurkat cells. At the times designated in FIG. 7, percentages of apoptotic and dead cells in the cultures were determined by Annexin V binding and permeability to PI using the Annexin V-FITC Apoptosis Detection Kit I (BD PharMingen, San Diego, Calif.) according to the manufacturer's instruction. […]

Another experiment addresses CD3 (human). Briefly: cell-based or functional assay.
For experiment [4], the system named is T lymphocyte clones 40E10 and 40H7. The experiment is described as follows: Apoptosis induction in T cell clones by Annexin V binding and permeability to PI. The experiment is classed as cell-based, human. The note with it: 1 μg/ml of ADC, 4S-hour incubation. As for the experimental part:
FIG. 21. […] After 48 hr of incubation, Annexin V binding and permeability of PI were used to assess the extent of apoptosis induction.

For experiment [5], the system named is activated naïve T lymphocytes (CD45RO-). Briefly: Proliferation of activated naïve T lymphocytes, 3H-TdR. The experiment is classed as cell-based, human. The note with it: compared to memory T lymphocytes or T lymphocyte clones. As for the experimental part: As PBMC are made up of different subsets of lymphocytes, the response of one cellular subset toward cAC10 ADCs may easily be masked by other subsets. In order to examine this possibility, total T lymphocytes, naïve and memory T lymphocytes were enriched from PBMC by negative immuno-selection. Briefly, PBMCs were incubated with one of the following antibody cocktails, containing saturating quantities of antibodies, at a final concentration of 20×10^6 cells/ml on ice for 20 minutes. To enrich for total T lymphocytes, the antibody cocktail contained anti-CD 14 (BD PharMingen), anti-CD16 (BD PharMingen), and anti-CD20 (BD PharMingen). To enrich for naïve T lymphocytes (CD45RO^−), the antibody cocktail contained anti-CD14, anti-CD16, anti-CD20, and anti-CD45RO (BD PharMingen). To enrich for memory T lymphocytes (CD45RA^−), the antibody cocktail contained, anti-CD14, anti-CD16, anti-CD20, and anti-CD45RA (BD PharMingen). […]
Activation-induced expression of CD30 on different T cell subsets was then examined. […] After 72 hours of incubation, the expression of CD30 on both CD4 and CDS cells in the different cultures was determined by flow cytometry, also as outlined in Example 6. Expression of CD30 was detected on both CD4 and CDS cells regardless of whether the starting population was total, naïve, or memory T lymphocytes (FIG. 12). […]

In experiment [6] the test system is Jurkat T cells. The experiment is described as follows: Growth inhibition of Jurkat T cells by ADC, 3H-TdR pulse. The experiment is classed as cell-based, human. As to conditions: 80 hours incubation + 16 hour 3H-TdR pulse. How it is done: FIG. 9. […] Cells were exposed to the ADCs continuously for a total of 96 hr. Proliferation was assessed by a pulse of H-TdR during the last 16 hours of incubation.
Five thousand Jurkat T cells in 100 μl of medium were seeded in 96-well TC plates. […] After 80 hours of incubation, cellular DNA synthesis was assessed by a 16 hour ^3H-TdR pulse.

For experiment [7], the system named is 10 CD30+ T lymphocyte clones. The experiment is described as follows: Summary of efficacies of cAC10 ADCs on proliferation of CD30+ T lymphocyte clones. The experiment is classed as cell-based, human. As to conditions: FIG. 23 summary. The text has this:
The following trend was observed. […] These clones have been expanded through multiple rounds of T cell receptor and cytokine stimulation, similar to chronically stimulated effector T cells involved in inflammatory and autoimmune responses.

Several values for one entry are separate records, joined by “and”; a condition that tells them apart may be missing. Identical values can stand only once. Entries after “also recorded” stand apart in the source; their conditions may differ.

CD30 (human), sequence (P28908 19-595): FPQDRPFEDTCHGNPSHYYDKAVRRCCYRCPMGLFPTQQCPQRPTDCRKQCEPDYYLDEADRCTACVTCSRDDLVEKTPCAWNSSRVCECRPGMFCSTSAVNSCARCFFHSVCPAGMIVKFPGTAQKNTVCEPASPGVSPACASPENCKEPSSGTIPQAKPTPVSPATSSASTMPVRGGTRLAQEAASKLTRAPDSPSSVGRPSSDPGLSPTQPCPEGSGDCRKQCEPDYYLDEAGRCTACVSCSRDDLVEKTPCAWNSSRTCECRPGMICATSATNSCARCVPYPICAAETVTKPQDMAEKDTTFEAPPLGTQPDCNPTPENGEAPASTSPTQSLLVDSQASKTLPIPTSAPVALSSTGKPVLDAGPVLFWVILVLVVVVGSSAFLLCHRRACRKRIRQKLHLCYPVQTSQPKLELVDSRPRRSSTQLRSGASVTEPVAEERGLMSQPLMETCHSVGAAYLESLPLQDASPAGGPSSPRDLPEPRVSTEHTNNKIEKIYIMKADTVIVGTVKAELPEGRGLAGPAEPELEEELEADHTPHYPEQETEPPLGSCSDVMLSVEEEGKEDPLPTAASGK

With cIgG-fkMMAE (antibody), in the experiment with CD30 (human), the percent of cells apoptotic or dead (Annexin V / PI), clones 40E10 and 40H7, 48 h with 1 µg/ml ADC (control for cAC10-fkMMAE) is 13% and 31%; the proliferation of activated Th2 clones 40E10 and 40H7 (3H-TdR); concentration needed for inhibition (control ADC) is greater than 0.1 µg/mL.

Consider “AC10: murine anti-CD30 mAb; variable regions SEQ ID NO:2 and 10”, for which, in the experiment on Jurkat T cells [1], the “inhibition of Jurkat T cell proliferation by immobilized mAb” value is on record as “active in inhibiting Jurkat T cell proliferation” and the “inhibition of thymidine incorporation in Jurkat cells” value is reported as “inhibited thymidine incorporation in Jurkat cell dose-dependently”. In addition, the “DNA fragmentation in Jurkat cells” value in the experiment with Jurkat T cells [2] was “detectable”. The “apoptosis induction in Jurkat T cells (BrdU and PI staining)” value with Jurkat T cells [2] (single mAb cross-linked by goat anti-mouse IgG Fc, compared to medium control) was “induced apoptosis”. Also, the “earliest time of detectable apoptosis after incubation” value in the experiment on Jurkat T cells [3] stood at 4 h.

As to anti-CD3 mAb OKT3 (antibody), in the experiment with CD3 (human), the concentration giving the best synergy with AC10 for apoptosis in Jurkat T cells came to 0.2 µg/mL.

As to “cAC10-fkMMAE: chimeric AC10 anti-CD30 antibody conjugated to MMAE via phenylalanine-lysine linker”, the “cells either apoptotic or dead” value in [4] is reported as 44-48%.

“cAC10-vcAEFP: chimeric AC10 anti-CD30 antibody conjugated to AEFP via valine-citrulline linker”: the “sensitivity of naïve T lymphocytes to the ADC” value in experiment [5] was “less sensitive; also recorded: most refractory”.

Take “non-binding control IgG (cIgG)-vcMMAE (antibody)”: in the experiment with CD30 (human), the Jurkat T cell DNA synthesis (3H-TdR), 96 h exposure; concentration needed for growth inhibition (control ADC) is greater than 0.1 µg/mL; the proliferation of activated Th2 clones 40E10 and 40H7 (3H-TdR); concentration needed for inhibition (control ADC) is greater than 2 µg/mL.

Turning to “cAC10-vcMMAE: chimeric AC10 anti-CD30 antibody conjugated to MMAE via valine-citrulline linker”, in the experiment on Jurkat T cells [6], the IC50 result is listed as “approximately 0.1 μg/ml” and the “concentrations that significantly inhibited DNA synthesis” value is reported as “higher than 0.001 μg/ml”. Also, in experiment [5], the “sensitivity of naïve T lymphocytes to the ADC” value is “relatively refractory; also recorded: most refractory”. For the same molecule, the “sensitivity of T lymphocyte clones compared to memory T lymphocytes” value in experiment [7] is given as “eight of the 10 T lymphocyte clones were found to be more sensitive”.

With “cAC10: chimeric AC10 (cAC10) anti-CD30 mAb”, the “concentration with growth inhibitory effect on Jurkat cells” value in the experiment on Jurkat T cells [1] (soluble, unconjugated (FIG. 2)) is “higher than 1 μg/ml”. Besides, the “concentrations at which Jurkat cell proliferation was not inhibited” value in the experiment on Jurkat T cells [1] (without secondary cross-linking) is recorded as “below 1 μg/ml”.

B1: HeFi-1: murine anti-CD30 mAb; variable regions SEQ ID NO:18 and 26 (antibody, listed as Mus musculus, V domains shown)
VH: EVKLVESGGGLVQPGGSLRLSCATSGFTFSDYYMNWVRQPPGKALEWLGFIRNKANGYTTEFSASVMGRFTISRDDSQSILYLQMNTLRAEDSATYYCARDPPYGNPHYYAMDYWGQGTSVTVSS
VL: DIVLTQSPASLAVSLGQRATISCRASKSVSASGYNYMHWYQQKAGQPPKLLIHLASNLESGVPARFSGSGSGTDFTLNIHPVEEEDASTYYCQHSGELPFTFGSGTKLEIK
With B1, in the experiment on Jurkat T cells [1], the “inhibition of Jurkat T cell proliferation by immobilized mAb” value is “active in inhibiting Jurkat T cell proliferation” and the “inhibition of thymidine incorporation in Jurkat cells” value was “inhibited thymidine incorporation in Jurkat cell dose-dependently”. In addition, the “DNA fragmentation in Jurkat cells” value in the experiment on Jurkat T cells [2] was “detectable”. The “earliest time of detectable apoptosis after incubation” value in the experiment on Jurkat T cells [3] worked out at 4 h.

These data come from patent US20050123536A1, “Treatment of immunological disorders using anti-dc30 antibodies” (priority 2001, published 2005).
